Test results published in patent US20120302614A1, “METHOD FOR IMPROVING CEREBRAL CIRCULATION OR TREATING A CEREBRAL BLOOD FLOW DISORDER” (OSAKA UNIVERSITY, priority 2007, published 2012).

Tests used:
[1] = test system: Aβ injection model (Aβ 1-40 administered intracerebroventricularly); experiment: Morris water maze test in Aβ injection model, Test Example 1; assay type: in vivo, ddY mouse
Procedure: The therapeutic effect of olmesartan medoxomil in Aβ injection model and the dose dependency thereof were examined according to the following experimental schedule. [Experimental Schedule]: Prior to the experiment, 8-week old male ddY mice were administered olmesartan medoxomil (0.5 mg/kg/day, 1 mg/kg/day, 3 mg/kg/day or 6 mg/kg/day) or distilled water orally for four weeks (day −28 to −1). Then, Aβ 1-40 was administered to the mice intracerebroventricularly (day 0). (Although Aβ 1-40 was administered into one of the lateral ventricles in WO 2006/059777, Aβ 1-40 was administered in Test Example 1 to both lateral ventricles with an interval of one day between two administrations. Except for this point, Aβ 1-40 administration was performed in the same manner as in WO 2006/059777.) From one week thereafter, a behavioral test to evaluate cognitive function (Morris water maze test; Morris R et al., J Neuroscience Methods 1984, 11, 47-60) was performed (day 7 to 12). As a negative control, mice which had received oral administration of distilled water for four weeks were administered Aβ 40-1 intracerebroventricularly. The administration of olmesartan medoxomil or distilled water was continued until the end of the behavioral test. Measurements were performed as described below. • Hidden platform test: A platform is placed below the water surface of a water pool 150 cm in diameter filled with white water-colored. Mice are released into the water, and the time it takes them to reach the platform is measured. This trial is performed three times a day and for five consecutive days. As they learn, mice become able to reach the platform more quickly day by day. • Visible platform test: Mice are released into the water under such conditions that they can see the platform. The time it takes them to reach the platform is measured. • Probe test: The platform is removed, and mice are released and allowed to swim freely. Those mice with good learning/memory swim in the quadrant where the platform was located searching for the platform. The time they spent in that quadrant is measured. • Annnulus crossing: The number of times mice crossed the platform in the probe test is counted.

[2] = Blood pressure, Test Example 2 (hydralazine as hypotensive control); assay type: in vivo, ddY mouse; conditions: after 4-week oral administration (day −1); olmesartan medoxomil 1 mg/kg/day, hydralazine 30 mg/kg/day
Procedure: Further, assessment of blood pressure was performed by the tail-cuff method (using a sphygmomanometer wound around the mouse tail) (Bunag R D, J Lab Clin Med. 1971, 78, 957-62) immediately before the start of administration of olmesartan medoxomil or distilled water (day −30), immediately before (day −1) and immediately after (day 2) the Aβ intracerebroventricular administration, and after completion of the behavioral test (day 14) (see FIG. 1). […] The dose of olmesartan medoxomil was set at a low level of 1 mg/kg/day in view of the experimental results of Test Example 1. […] The number of successive interceptions by the subject of the two adjoining beams on each bank is counted as locomotion score. • Long-term retention: On day 12 after the completion of the hidden platform test as a water maze test, mice are released into the water and the time it takes them to reach the platform is measured. • Working memory task: The platform is transferred and fixed at a new place. Mice are given four consecutive trials at intervals of as short as 20 seconds, and the time it takes them to reach the platform is measured. […] In order to eliminate this influence, swimming speed is measured.

[3] = 0.5 mg/kg/day oral, versus Aβ 1-40 administration group
[4] = 1.0 mg/kg/day oral, versus Aβ 1-40 administration group

## CCCc1nc(C(C)(C)O)c(C(=O)OCc2oc(=O)oc2C)n1Cc1ccc(-c2ccccc2-c2nnn[nH]2)cc1 [olmesartan medoxomil, (5-methyl-2-oxo-1,3-dioxolen-4-yl)methyl 4-(1-hydroxy-1-methylethyl)-2-propyl-1-[4-[2-(tetrazol-5-yl)phenyl]phenyl]methyl-imidazole-5-carboxylate]
[1]; [3]
  hidden platform test: escape latency (impairment in spatial memory and learning ability): improved significantly
  probe test: time spent in the target quadrant: significantly improved
[1]; [4]
  hidden platform test: escape latency (impairment in spatial memory and learning ability): improved significantly
  number of annulus crossings: significantly improved
  probe test: time spent in the target quadrant: significantly improved
[1]; 3.0 mg/kg/day oral, versus Aβ 1-40 administration group
  hidden platform test: escape latency (impairment in spatial memory and learning ability): improved significantly
[1]; high dose groups (3-6 mg/kg/day)
  improvement of impairment in spatial memory and learning evoked by Aβ 1-40: not observed
[1]; low dose groups (0.5-1 mg/kg/day)
  improvement of impairment in spatial memory and learning evoked by Aβ 1-40: observed
[1]; oral administration for four weeks in advance of Aβ 1-40
  cognitive impairment (spatial memory and learning) in Morris water maze test, overall: significantly improved
[2]
  blood pressure compared to distilled water administration group: lowered significantly
